The text below walks through data of US7491707B1, “Synthetic lipid-a-analogs and uses thereof” (Biomira, Inc., priority 1999, dated 2009).

The nature of data set [1]: Solubility of Lipid-A analogs for incorporation into liposomes. The format is physicochemical. The conditions noted are these: in words; given as cause of poor incorporation into liposomes.
The test system of data set [2] is T-cell. Kind of data set: T-cell proliferation (3H thymidine incorporation) of lymph node lymphocytes from mice immunized with MUC1-based liposomal vaccine adjuvanted with Lipid-A analog. To be noted: for T-cell-Proliferation (CPM): s.c. liposomal vaccine 40 μg BP1-148 + 20 μg Lipid-A analog per dose, nine days after injection, boosting antigen BP1-151; for T-cell blastogenesis: in words, liposomal vaccine formulations in mice, FIG. 31-FIG. 33. The format is in vivo, C57-Black mice. Here is the method:
(§1) Typically, the liposomal formulation was composed of 400 μg of MUC1-based lipopeptide BP1-148, H2N-[…](Pal)G-OH, 200 μg of Lipid-A analog, 6.94 mg of cholesterol, 1.46 mg of dimyristoyl phosphatidylglycerol ([…]) and 11.62 mg of dipalmitoyl phosphatidylcholine (DPPC) per 1 ml of saline (0.9% NaCl solution).
(§2) The liposomal constructs were formulated by first dissolving the phospholipids, cholesterol and Lipid A analog in tert-butanol at about 53° C. Lipopeptide and water (5%, v/v) were then added to the tert-butanol solution. The resulting clear 95% tert-butanol solution was injected into about 4 volumes of rapidly stirred water at about 50° C., using a glass syringe with an 18-gauge needle. The small unilamellar vesicles (SUV) formed in this process were cooled, sterilized by filtration through a 0.22 μm membrane filter, filled into vials and lyophilized. The dry powder was re-hydrated with sterile saline before injection, resulting in the formation of multilamellar large vesicles (MLV). The liposomes formed are used to immunize mice.
(§3) Groups of C57-Black mice were immunized subcutaneously with the liposomal vaccine containing 40 μg of MUC1-based lipopeptide BP1-148 (FIG. 34), which has the peptide sequence of H2N-[…](Pal) G-OH, and 20 μg of Lipid-A analog per dose. Nine days after vaccine injection mice were sacrificed and lymphocytes were taken from the draining lymph nodes (local response) or from the spleens (systemic response) to determine the immune response in each group. The lymphocytes taken from immunized mice were incubated in in vitro cultures in the presence of MUC1-based boosting antigen BP1-151, which has the peptide sequence H2N-[…]-OH.
T-cell proliferation was evaluated using a standard ^3H thymidine incorporation assay. Briefly, nylon wool passed inguinal lymph node lymphocytes from each mouse were added to a culture containing 106 native mitomycin C treated syngeneic splenocytes, which serves as antigen presenting cells (APCs). To each well 20 μg of MUC1-based boosting peptide BP1-151, H2N-[…]-OH (single letter amino acid code, Table 8), was added for positive control; and cultures containing no antigen or peptide BP1-72, which has the peptide sequence H2N-[…]-OH, were used as negative control. The culture was incubated for 72 h in a total volume of 250 μl well, followed by adding 1 μCi of ^3H-thymidine in a volume of 50 μl. The plates were incubated for an additional 18-20 h. Cells were harvested and [^3H]dTh incorporation was measured by liquid scintillation counter. T-cell proliferation results corresponding to various liposomal vaccines adjuvanted, with different Lipid-A analogs are summarized in Tables 1-Table 3 and FIG. 31-FIG. 33.

In data set [3] the test system is Interferon-gamma (IFN-γ). Briefly: Interferon-gamma (IFN-γ) production in cell culture supernatants by ELISA, lymphocytes of mice immunized with adjuvanted MUC1 liposomal vaccine. The data set is classed as in vivo, C57-Black mice. To be noted: for Interferon-gamma (IFN-γ, pg/ml): s.c. liposomal vaccine 40 μg BP1-148 + 20 μg Lipid-A analog per dose, nine days after injection; for interferon-gamma production: in words, liposomal vaccine formulations in mice, FIG. 31-FIG. 33. How it is done:
as §1, §2, §3
Interferon-gamma (IFN-γ) levels were determined in the cell culture supernatants using enzyme-linked immunoabsorbent assay (ELISA). 96-Well plates were coated with 50 μl of catcher Mabs in 50 μl of R4.6AZ at 37° C. for 30 min. The plates were then washed and incubated with test samples for 45 min. After two washes the second biotinylated antibody, XMG1.2 was added. After washing, peroxidase-conjugated streptavidin was added and incubated again for 30 min. Finally, 100 μl of horseradish peroxidase (HRPO) substrate solution was added. The optical density was measured with a Thermomax ELISA reader at 405 nm wavelength in kinetic mode for 10 min. The interferon-gamma (IFN-γ) levels corresponding to various Lipid-A analogs are shown in Table 1-Table 3 and FIG. 31-FIG. 33.
Background: ELISA stands for enzyme-linked immunosorbent assay.

Data set [4] deals with immune response to MUC1-based lipopeptide BP1-148. Briefly: Adjuvanticity of Lipid-A analogs in liposomal vaccine with MUC1 lipopeptide BP1-148 (T-cell blastogenesis and IFN-γ production). The format is in vivo, mice. The conditions noted are these: in words; for adjuvant activity compared to Natural Lipid-A (Lipid-A preparation of bacterial origin): liposomal formulations with BP1-148 in mice, FIGS. 31-33.
Description: Liposome formulations have been used to evaluate the adjuvant properties of various synthetic Lipid-A structures and the immune responses to a synthetic lipopeptide antigen BP-148, H2N-[…](Pal)G-OH (FIG. 34), a modified 25-amino-acid sequence derived from tumor-associated MUC1 mucin. The commercially available Lipid-A product, which is currently under clinical evaluation as an adjuvant for vaccine programs, was used for comparison. The natural Lipid-A product, purchased from AVANTI, contained a mixture of Lipid-A analogs extracted from Salmonella bacterial cell wall and is designated as Natural Lipid-A in this invention.
Thus, the liposomal formulations containing the synthetic lipopeptide antigen, BP1-148, and Lipid-A analogs 33, 48, 54, 58, 70, 77, 86, 94, 102, 104 or Natural Lipid-A, were used to immunize mice to measure their immune response in terms of T-cell blastogenesis and interferon-gamma (IFN-γ) production. The compounds were tested in three groups at different time and their preliminary results are shown separately in FIGS. 31-33. As the variations are attributed to different factors such as animal groups and experimental factors, the data from different groups will not be compared.
as §3

In data set [5] the test system is C57-Black mice. Kind of data set: Lethal toxicity of Lipid-A analogs injected i.p. followed by Actinomycin D. The data set is classed as in vivo. The conditions noted are these: for No. Survived/No. Tested (+24 h): Actinomycin D +. How it is done: Synthetic Lipid-A analog 86 and the Natural Lipid-A (see Example 95 for more detail) were tested for their lethal toxicity. Test methods and results are summarized below (Table 4) • a) Preparation of Lipid-A analog solution: 1 mg of Lipid-A analog was dissolved in 1 ml of 20% DMSO and diluted with saline to obtain 50 μg, 10 μg and 2 μg doses in 0.5 ml. • b) Preparation of Actinomycin D: 5 mg of Actinomycin D was dissolved in 1 ml of ethanol and diluted with saline to obtain a dose at 550 μg/kg in 0.5 ml. • c) Procedure: Various doses of Lipid-A analogs or solvent as control were injected intraperitoneally (i.p.) into C57-Black mice. Twenty minutes later all groups of mice were injected with 500 μl of Actinomycin D. Mice were then observed for mortality or any other symptoms of toxicity.

SMILES strings stand for the structures. “Also recorded” adds a separate entry of the source.

For `CCCCCCCCCCCCCC(=O)N[C@@H](CC(=O)N[C@H]1[C@H](OC[C@H]2OC(O)[C@H](NC(=O)C[C@@H](CCCCCCCCCCC)OC(=O)CCCCCCCCCCCCC)[C@@H](O)[C@@H]2O)O[C@H](CO)[C@@H](OP(=O)(O)O)[C@@H]1OC(=O)C[C@@H](CCCCCCCCCCC)OC(=O)CCCCCCCCCCCCC)C(=O)NCCCCCCCCC` (stereo partly drawn) [Compound 58, 2-Deoxy-6-O-{2-deoxy-2-[(3S)-3-tetradecanamido-4-nonylamino-4-oxo-butanamido]-4-O-phosphono-3-O-[(3R)-3-tetradecanoyloxytetradecanoyl]-β-D-glucopyranosyl}-2-[(3R)-3-tetradecanoyloxytetradecanamido]-α/β-D-glucopyranose], the solubility result in data set [1] is given as “poor solubility”. Also, the “T-cell-Proliferation (CPM)” value in data set [2] (Table 1, first test group) was found to be 686 CPM. Also, the T-cell blastogenesis result in data set [2] was “inactive”. Also, in data set [3] (Table 1, first test group), the “Interferon-gamma (IFN-γ, pg/ml)” value stood at 0 pg/mL. In addition, the interferon-gamma production entry in data set [3] is “inactive”.

In the case of `CCCCCCCCCCCCCC(=O)N[C@@H](CC(=O)N[C@H]1C(O)O[C@H](CO)[C@@H](OP(=O)(O)O)[C@@H]1OC(=O)CCCCCCCCCCCCC)C(=O)NCCCCCCCCC` (stereo partly drawn) [Compound 33, 2-Deoxy-4-O-phosphono-2-[(3S)-3-tetradecanamido-4-nonylamino-4-oxo-butanamido]-3-O-tetradecanoyl-α/β-D-glucopyranose], the solubility result in data set [1] was “poor solubility”. Further, the “T-cell-Proliferation (CPM)” value in data set [2] (Table 1, first test group) came to 822 CPM. Moreover, the T-cell blastogenesis entry in data set [2] was “inactive”. The “Interferon-gamma (IFN-γ, pg/ml)” value in data set [3] (Table 1, first test group) is 0 pg/mL. The interferon-gamma production result in data set [3] was “inactive”.

On to `CCCCCCCCCCCCCC(=O)O[C@H](CCCCCCCCCCC)CC(=O)N[C@H]1[C@H](OC[C@H]2OC(O)[C@H](NC(=O)C[C@@H](CCCCCCCCCCC)OC(=O)CCCCCCCCCCCCC)[C@@H](OCCC)[C@@H]2O)O[C@H](CO)[C@@H](OP(=O)(O)O)[C@@H]1OC(=O)C[C@@H](CCCCCCCCCCC)OC(=O)CCCCCCCCCCCCC` (stereo partly drawn) [Compound 70, 2-Deoxy-6-O-{2-deoxy-2-[(3R)-3-tetradecanoyloxytetradecanamido]-4-O-phosphono-3-O-[(3R)-3-tetradecanoyloxytetradecanoyl]-β-D-glucopyranosyl}-3-O-propyl-2-[(3R)-3-tetradecanoyloxytetradecanamido]-α/β-D-glucopyranose], for which the “T-cell-Proliferation (CPM)” value in data set [2] (Table 2, second test group) worked out at 25034 CPM. The T-cell blastogenesis entry in data set [2] is recorded as “significant T-cell blastogenesis”. Besides, the “adjuvant activity compared to Natural Lipid-A (Lipid-A preparation of bacterial origin)” value in data set [4] is listed as “as effective”. The “Interferon-gamma (IFN-γ, pg/ml)” value in data set [3] (Table 2, second test group) stood at 17321 pg/mL. Besides, in data set [3], the interferon-gamma production result is on record as “high levels of interferon-gamma”.

Consider `CCCCCCCCCCCCCCCC(=O)O[C@H](CCCCCCCCCCC)CC(=O)N[C@H]1C(O)O[C@H](CO[C@@H]2O[C@H](CO)[C@@H](OP(=O)(O)O)[C@H](OC(=O)C[C@@H](CCCCCCCCCCC)OC(=O)CCCCCCCCCCCCC)[C@H]2NC(=O)C[C@@H](CCCCCCCCCCC)OC(=O)CCCCCCCCCCC)[C@@H](O)[C@@H]1O` (stereo partly drawn) [Compound 48, 2-Deoxy-6-O-{2-deoxy-2-[(3R)-3-dodecanoyloxytetradecanamido]-4-O-phosphono-3-O-[(3R)-3-tetradecanoyloxytetradecanoyl]-β-D-glucopyranosyl}-2-[(3R)-3-hexadecanoyloxytetradecanamido]-α/β-D-glucopyranose], for which the “T-cell-Proliferation (CPM)” value came to 14112 CPM in data set [2] (Table 1, first test group) and 28149 CPM in data set [2] (Table 2, second test group). For the same molecule, in data set [2], the T-cell blastogenesis result is recorded as “significant T-cell blastogenesis”. In data set [4], the “adjuvant activity compared to Natural Lipid-A (Lipid-A preparation of bacterial origin)” value is “as effective”. Also, the “Interferon-gamma (IFN-γ, pg/ml)” value worked out at 2430 pg/mL in data set [3] (Table 1, first test group) and 18261 pg/mL in data set [3] (Table 2, second test group). In data set [3], the interferon-gamma production result is “high levels of interferon-gamma”.

As for `CCCCCCCCCCCCCC(=O)O[C@H](CCCCCCCCCCC)CC(=O)N[C@H]1[C@H](OC[C@H]2OC(O)[C@H](NC(=O)C[C@@H](CCCCCCCCCCC)OC(=O)CCCCCCCCCCCCC)[C@@H](OC(=O)C[C@H](O)CCCCCCCCCCC)[C@@H]2O)O[C@H](CO)[C@@H](OP(=O)(O)O)[C@@H]1OC(=O)C[C@@H](CCCCCCCCCCC)OC(=O)CCCCCCCCCCCCC` (stereo partly drawn) [Compound 86, 2-Deoxy-6-O-{2-deoxy-4-O-phosphono-2-[(3R)-3-tetradecanoyloxytetradecanamido]-3-O-[(3R)-3-tetradecanoyloxytetradecanoyl]-β-D-glucopyranosyl}-3-O-[(3R)-3-hydroxytetradecanoyl]-2-[(3R)-3-tetradecanoyloxytetradecanamido]-α/β-D-glucopyranose], the “T-cell-Proliferation (CPM)” value in data set [2] (Table 2, second test group) is 52382 CPM; in data set [2] (Table 3, third test group) it was 15486 CPM. Further, the T-cell blastogenesis entry in data set [2] was “significant T-cell blastogenesis”. Moreover, the “adjuvant activity compared to Natural Lipid-A (Lipid-A preparation of bacterial origin)” value in data set [4] was “as effective”. In data set [4] (second group (FIG. 32)), the “activity compared to the other synthetic Lipid-A analogs” value was “slightly more active”. In addition, the “survival of the study” value in data set [5] (all three doses (50 μg, 10 μg, 2 μg) i.p., experiment terminated 4 days later) is listed as “survived the study”. The “No. Survived/No. Tested (+24 h)” value in data set [5] (dose 2/500 μg/μl i.p.), in data set [5] (dose 10/500 μg/μl i.p.) and in data set [5] (dose 50/500 μg/μl i.p.) was 3/3 throughout. In addition, the “toxicity compared to Natural Lipid-A product from Salmonella” value in data set [5] (in words, in vivo, C57-Black mice, Actinomycin D) is “much less toxic; also recorded: much lower”. In addition, the “Interferon-gamma (IFN-γ, pg/ml)” value in data set [3] (Table 2, second test group) is 36461 pg/mL; in data set [3] (Table 3, third test group), 17697 pg/mL. In data set [3], the interferon-gamma production result is “high levels of interferon-gamma”.
